{
  "source": "ChEMBL document CHEMBL1201862",
  "about": "“PubChem BioAssay data set” (2004)",
  "key": {"Estrogen receptor beta [1]": {"molecular_target": "T1, Estrogen receptor beta (Homo sapiens, UniProt Q92731)", "T1 sequence (Q92731 whole entry)": "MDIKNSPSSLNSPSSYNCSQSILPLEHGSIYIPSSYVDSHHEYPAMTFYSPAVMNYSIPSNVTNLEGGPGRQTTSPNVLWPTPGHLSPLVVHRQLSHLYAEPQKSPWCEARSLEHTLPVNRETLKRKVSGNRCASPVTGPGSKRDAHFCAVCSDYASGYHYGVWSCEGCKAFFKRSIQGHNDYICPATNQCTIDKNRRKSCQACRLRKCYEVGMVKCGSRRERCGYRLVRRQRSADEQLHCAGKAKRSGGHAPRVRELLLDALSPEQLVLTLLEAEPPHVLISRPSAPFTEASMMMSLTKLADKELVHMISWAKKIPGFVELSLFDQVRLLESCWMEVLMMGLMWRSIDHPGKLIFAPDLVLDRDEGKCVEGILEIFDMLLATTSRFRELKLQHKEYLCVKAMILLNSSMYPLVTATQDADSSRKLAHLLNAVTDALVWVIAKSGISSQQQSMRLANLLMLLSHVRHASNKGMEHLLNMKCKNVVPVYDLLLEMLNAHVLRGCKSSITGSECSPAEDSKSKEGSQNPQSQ", "assay": "blockers of SRC-3 recruitment to ERβ – biochemical, ELISA, streptavidin-HRP readout, orthogonal assay, confirmation (AID 1060)"}, "[2]": {"assay": "HIV-1 Vif–A3G interaction blockers – biochemical, TR-FRET, GST-Vif 1-94, biotin-A3G peptide, dose response retest, primary screen (AID 1117319);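 note: TR-FRET signal of purified GST-Vif binding a biotinylated A3G peptide; inhibitors lower the FRET signal by blocking Vif and A3G binding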", "type": "functional"}, "[3]": {"molecular_target": "T2, Carboxy-terminal domain RNA polymerase II polypeptide A small phosphatase 1 (Homo sapiens, UniProt Q9GZU7)", "T2 sequence (Q9GZU7 whole entry)": "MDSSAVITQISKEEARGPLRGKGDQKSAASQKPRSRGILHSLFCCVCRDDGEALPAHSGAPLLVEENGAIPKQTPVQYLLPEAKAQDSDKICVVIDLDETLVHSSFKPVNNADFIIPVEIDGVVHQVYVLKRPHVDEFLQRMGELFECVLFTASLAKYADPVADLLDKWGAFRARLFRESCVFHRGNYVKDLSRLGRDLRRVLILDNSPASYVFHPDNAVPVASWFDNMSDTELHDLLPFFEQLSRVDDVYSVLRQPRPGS", "assay": "CTDSP1 inhibitors, concentration-response, biochemical, absorbance readout, ultra-high-throughput screen actives (AID 540297)", "type": "functional"}, "Estrogen receptor beta [4]": {"molecular_target": "T1, Estrogen receptor beta"}, "[5]": {"assay": "Trypanosoma cruzi growth suppression in host cells – NIH3T3 host cells, beta-gal luminescence, confirmation (AID 2044);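 note: intracellular parasites grown in NIH/3T3 mouse fibroblasts as host cells; luminescent beta-galactosidase reporter signal from transgenic T. cruzi replicating inside host cells; inhibitors lower the luminescence signal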", "type": "functional, cell-based"}, "[6]": {"molecular_target": "T3, Mannose-6-phosphate isomerase (Homo sapiens, UniProt P34949)", "T3 sequence (P34949 whole entry)": "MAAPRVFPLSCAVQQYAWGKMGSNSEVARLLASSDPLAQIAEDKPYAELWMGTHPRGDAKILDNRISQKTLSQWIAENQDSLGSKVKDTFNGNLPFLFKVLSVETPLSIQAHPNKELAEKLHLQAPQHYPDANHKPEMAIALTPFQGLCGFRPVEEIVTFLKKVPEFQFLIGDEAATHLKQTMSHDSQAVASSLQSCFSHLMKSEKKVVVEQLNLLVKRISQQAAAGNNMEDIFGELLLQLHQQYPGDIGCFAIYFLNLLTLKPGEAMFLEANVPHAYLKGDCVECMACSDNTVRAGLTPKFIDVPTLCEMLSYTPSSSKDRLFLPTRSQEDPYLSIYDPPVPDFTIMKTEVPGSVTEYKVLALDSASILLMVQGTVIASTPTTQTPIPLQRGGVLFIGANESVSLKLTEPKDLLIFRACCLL", "assay": "MPI enzyme activity inhibition – biochemical, fluorescence intensity, coupled assay, primary screen (AID 1209)"}, "[7]": {"assay": "NIH3T3 cell viability loss – ATP luminescence, mouse fibroblasts, counter-screen, dose response (AID 2010);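 note: cells exposed to compound for about 90 hours before reading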", "type": "functional, cell-based"}, "[8]": {"assay": "Luminescence Cell-Based Dose Retest to Confirm Inhibitors of Cancer Stem Cells. [Related pubchem assays (depositor defined):AID2717, AID2721]", "type": "functional", "details": "Homo sapiens"}, "INS1": {"tested_on": "INS1", "assay": "INS-1E survival protection against cytokine death – cell-based, luminescence, retest, dose response (AID 449756);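 note: cell death triggered by IL-1 beta plus TNF-alpha plus IFN-gamma mixture; protective hits raise ATP signal compared with cytokine alone wells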", "type": "functional", "details": "Rattus norvegicus"}, "[9]": {"molecular_target": "Diphosphomevalonate decarboxylase (Streptococcus pneumoniae serotype 2 (strain D39 / NCTC 7466), UniProt Q9FD53)", "sequence (Q9FD53 whole entry)": "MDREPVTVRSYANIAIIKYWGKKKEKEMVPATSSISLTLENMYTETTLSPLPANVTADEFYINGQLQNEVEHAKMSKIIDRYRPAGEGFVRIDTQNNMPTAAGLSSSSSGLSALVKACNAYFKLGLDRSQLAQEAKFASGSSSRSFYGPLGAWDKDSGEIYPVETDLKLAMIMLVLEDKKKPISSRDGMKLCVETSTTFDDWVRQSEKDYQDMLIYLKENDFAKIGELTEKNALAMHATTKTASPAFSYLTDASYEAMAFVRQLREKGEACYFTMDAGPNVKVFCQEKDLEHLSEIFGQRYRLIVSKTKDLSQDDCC", "assay": "diphosphomevalonate decarboxylase inhibitor confirmation – biochemical, cuvette format, coupled NADH fluorescence (AID 1028)", "type": "functional"}, "NADPH oxidase 1": {"molecular_target": "NADPH oxidase 1 (Homo sapiens, UniProt Q9Y5S8)", "sequence (Q9Y5S8 whole entry)": "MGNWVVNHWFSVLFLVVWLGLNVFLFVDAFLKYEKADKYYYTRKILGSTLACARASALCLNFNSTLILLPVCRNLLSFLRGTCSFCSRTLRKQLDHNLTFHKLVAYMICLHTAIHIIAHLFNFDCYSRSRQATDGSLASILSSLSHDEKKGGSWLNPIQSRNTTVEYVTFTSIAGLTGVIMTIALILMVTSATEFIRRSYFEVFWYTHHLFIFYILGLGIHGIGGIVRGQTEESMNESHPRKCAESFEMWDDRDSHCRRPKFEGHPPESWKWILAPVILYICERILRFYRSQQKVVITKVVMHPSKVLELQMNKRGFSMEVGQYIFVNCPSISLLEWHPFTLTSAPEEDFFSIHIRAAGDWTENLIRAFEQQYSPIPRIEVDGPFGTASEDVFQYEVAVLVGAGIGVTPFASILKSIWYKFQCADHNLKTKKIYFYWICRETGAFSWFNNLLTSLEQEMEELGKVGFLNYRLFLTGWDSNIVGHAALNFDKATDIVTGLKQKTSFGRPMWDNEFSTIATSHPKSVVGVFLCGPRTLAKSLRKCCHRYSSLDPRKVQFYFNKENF", "type": "functional, cell-based"}, "[10]": {"assay": "viability loss in THP-1 monocytes – THP-1 cells, cytotoxicity control for Vif-APOBEC3G degradation inhibitor project, dose response (AID 1117359)", "type": "functional", "details": "THP-1"}, "[11]": {"molecular_target": "DNA (cytosine-5)-methyltransferase 1 (Homo sapiens, UniProt P26358)", "sequence (P26358 whole entry)": "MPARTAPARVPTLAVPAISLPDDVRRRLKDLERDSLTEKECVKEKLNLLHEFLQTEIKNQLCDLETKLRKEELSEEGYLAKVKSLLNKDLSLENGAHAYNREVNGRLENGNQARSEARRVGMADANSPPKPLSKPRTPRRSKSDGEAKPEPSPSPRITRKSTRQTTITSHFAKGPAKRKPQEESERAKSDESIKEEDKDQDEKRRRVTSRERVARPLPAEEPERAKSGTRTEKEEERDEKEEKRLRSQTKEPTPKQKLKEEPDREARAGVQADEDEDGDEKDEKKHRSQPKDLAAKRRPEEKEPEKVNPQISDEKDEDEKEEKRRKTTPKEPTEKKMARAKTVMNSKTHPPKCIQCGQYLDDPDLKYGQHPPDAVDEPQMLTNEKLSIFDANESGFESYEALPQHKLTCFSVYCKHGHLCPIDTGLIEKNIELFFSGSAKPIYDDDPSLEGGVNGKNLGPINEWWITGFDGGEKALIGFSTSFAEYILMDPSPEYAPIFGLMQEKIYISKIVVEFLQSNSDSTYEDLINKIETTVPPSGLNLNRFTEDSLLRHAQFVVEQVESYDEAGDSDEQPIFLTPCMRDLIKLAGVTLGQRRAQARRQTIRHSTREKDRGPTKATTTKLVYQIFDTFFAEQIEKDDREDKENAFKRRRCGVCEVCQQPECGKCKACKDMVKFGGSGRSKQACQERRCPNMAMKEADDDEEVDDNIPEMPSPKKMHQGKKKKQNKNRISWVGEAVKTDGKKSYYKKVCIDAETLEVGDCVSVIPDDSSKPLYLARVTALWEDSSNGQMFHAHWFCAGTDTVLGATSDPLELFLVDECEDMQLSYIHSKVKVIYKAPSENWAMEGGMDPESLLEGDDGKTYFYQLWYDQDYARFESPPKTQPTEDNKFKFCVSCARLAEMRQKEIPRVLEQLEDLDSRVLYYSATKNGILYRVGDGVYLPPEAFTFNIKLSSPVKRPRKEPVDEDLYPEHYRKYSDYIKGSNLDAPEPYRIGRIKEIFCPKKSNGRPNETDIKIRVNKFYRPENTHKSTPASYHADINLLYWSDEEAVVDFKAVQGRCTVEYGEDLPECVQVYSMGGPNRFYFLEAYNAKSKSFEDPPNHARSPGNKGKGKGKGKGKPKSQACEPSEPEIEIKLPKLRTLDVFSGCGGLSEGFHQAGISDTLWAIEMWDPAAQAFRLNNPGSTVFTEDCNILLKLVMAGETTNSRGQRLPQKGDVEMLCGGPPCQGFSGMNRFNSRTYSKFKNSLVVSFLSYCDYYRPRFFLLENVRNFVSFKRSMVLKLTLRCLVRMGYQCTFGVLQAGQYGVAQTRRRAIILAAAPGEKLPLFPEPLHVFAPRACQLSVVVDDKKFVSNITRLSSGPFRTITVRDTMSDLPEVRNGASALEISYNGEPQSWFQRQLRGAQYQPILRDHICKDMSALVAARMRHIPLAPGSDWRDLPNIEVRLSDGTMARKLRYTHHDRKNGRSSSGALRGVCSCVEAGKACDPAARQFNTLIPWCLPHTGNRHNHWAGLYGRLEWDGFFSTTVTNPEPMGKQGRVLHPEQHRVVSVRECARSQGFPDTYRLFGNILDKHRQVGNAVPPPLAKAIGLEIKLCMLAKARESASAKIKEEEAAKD", "assay": "inhibition of DNA methylation by DNMT1 – biochemical, fluorescent molecular beacon, confirmation (AID 602386)", "type": "functional"}, "Bcl-2-like protein 10": {"molecular_target": "Bcl-2-like protein 10 (Homo sapiens, UniProt Q9HD36)", "sequence (Q9HD36 whole entry)": "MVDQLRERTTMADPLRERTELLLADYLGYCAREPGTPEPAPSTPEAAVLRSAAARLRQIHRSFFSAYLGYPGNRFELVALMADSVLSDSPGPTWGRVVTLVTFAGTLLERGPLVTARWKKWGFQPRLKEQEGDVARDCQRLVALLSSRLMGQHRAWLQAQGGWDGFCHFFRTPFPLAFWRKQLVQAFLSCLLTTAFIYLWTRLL", "assay": "Bcl-B/TR3 peptide binding disruption – biochemical, fluorescence polarization, FITC-TR3 peptide, selectivity assay for Bfl-1 inhibitor project, primary screen (AID 748);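 note: fluorescence polarization from a fluorescein-labelled TR3 peptide binding purified Bcl-B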"}, "Ephrin type-A receptor 4": {"molecular_target": "Ephrin type-A receptor 4 (Mus musculus, UniProt Q03137)", "sequence (Q03137 whole entry)": "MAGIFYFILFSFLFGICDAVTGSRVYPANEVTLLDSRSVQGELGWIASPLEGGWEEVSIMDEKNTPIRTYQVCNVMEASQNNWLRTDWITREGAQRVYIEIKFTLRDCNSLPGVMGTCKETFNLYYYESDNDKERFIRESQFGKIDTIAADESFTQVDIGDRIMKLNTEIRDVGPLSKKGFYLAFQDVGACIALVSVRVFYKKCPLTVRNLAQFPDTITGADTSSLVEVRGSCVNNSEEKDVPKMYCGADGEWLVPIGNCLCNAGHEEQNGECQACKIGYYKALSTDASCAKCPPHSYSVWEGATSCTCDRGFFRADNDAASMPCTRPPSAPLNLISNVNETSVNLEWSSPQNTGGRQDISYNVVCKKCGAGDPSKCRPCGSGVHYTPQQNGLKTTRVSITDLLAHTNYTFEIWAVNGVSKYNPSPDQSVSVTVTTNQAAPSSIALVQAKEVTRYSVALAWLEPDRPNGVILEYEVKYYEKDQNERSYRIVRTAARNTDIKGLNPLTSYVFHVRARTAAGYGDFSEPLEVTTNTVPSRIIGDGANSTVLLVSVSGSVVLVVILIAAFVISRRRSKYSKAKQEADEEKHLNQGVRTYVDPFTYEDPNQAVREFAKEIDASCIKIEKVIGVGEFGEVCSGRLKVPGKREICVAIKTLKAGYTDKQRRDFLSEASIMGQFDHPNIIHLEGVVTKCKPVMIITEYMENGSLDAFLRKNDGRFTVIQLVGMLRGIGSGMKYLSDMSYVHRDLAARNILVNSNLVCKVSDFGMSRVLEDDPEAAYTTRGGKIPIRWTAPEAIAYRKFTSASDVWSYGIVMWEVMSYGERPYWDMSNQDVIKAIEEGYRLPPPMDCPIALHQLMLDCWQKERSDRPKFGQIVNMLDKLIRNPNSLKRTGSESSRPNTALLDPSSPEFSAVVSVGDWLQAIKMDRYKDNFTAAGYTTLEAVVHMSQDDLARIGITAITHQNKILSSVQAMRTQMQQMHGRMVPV", "assay": "EphA4 ligand-binding antagonists – biochemical, colorimetric, mouse EphA4, primary screen (AID 689)", "type": "functional"}, "[12]": {"molecular_target": "Induced myeloid leukemia cell differentiation protein Mcl-1 (Homo sapiens, UniProt Q07820)", "sequence (Q07820 whole entry)": "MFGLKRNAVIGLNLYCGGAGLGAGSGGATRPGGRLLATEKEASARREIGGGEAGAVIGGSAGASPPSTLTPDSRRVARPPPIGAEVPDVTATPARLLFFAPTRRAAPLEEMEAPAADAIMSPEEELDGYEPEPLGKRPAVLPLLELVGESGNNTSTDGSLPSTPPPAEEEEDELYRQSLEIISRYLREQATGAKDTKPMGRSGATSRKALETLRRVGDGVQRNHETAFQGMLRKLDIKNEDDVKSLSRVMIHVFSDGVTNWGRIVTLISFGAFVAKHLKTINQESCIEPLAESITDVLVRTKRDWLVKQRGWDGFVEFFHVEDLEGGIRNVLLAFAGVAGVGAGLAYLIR", "type": "functional"}, "[13]": {"assay": "M. tuberculosis H37Rv growth inhibitors, H37Rv strain (AID 1626)", "type": "functional"}},
  "note": "Activity calls are given as the source filed them.",
  "data": [
    {"smiles": "CCCCN(CCCC)S(=O)(=O)c1ccc(NC(=O)Cc2cccs2)cc1", "values": [
      {"measurement": "IC50", "setting": "Estrogen receptor beta [1]", "value": "1.05 µM (not active)"},
      {"measurement": "IC50", "setting": "[2]", "value": "> 100 µM (active)"},
      {"measurement": "IC50", "setting": "[3]", "value": "7.14 µM (active)"},
      {"measurement": "IC50", "setting": "Estrogen receptor beta [4]", "value": "18.8 µM (active)"}
    ]},
    {"smiles": "CC1=[N+](C)c2ccc3ccccc3c2C1(C)C", "values": [
      {"measurement": "EC50", "setting": "[5]", "value": "2.83 µM (active)"},
      {"measurement": "IC50", "setting": "[6]", "value": "> 50 µM (not active)"},
      {"measurement": "EC50", "setting": "[7]", "value": "> 60 µM (not active)"},
      {"measurement": "AC50", "setting": "[8]", "value": "27.4 µM (active)"},
      {"measurement": "AC50", "setting": "INS1", "value": "6.8 µM (active)"}
    ]},
    {"smiles": "O=C(c1cccc(-n2sc3ccccc3c2=O)c1)N1CCOCC1", "values": [
      {"measurement": "IC50", "setting": "[9]", "value": "23.1 µM (active)"}
    ]},
    {"smiles": "O=[N+]([O-])c1ccccc1-c1nc(-c2ccccc2)c(-c2ccccc2)[nH]1", "values": [
      {"measurement": "IC50", "setting": "NADPH oxidase 1", "value": "> 17 µM (not active)"}
    ]},
    {"smiles": "O=C1CCCC2=C1C(c1ccco1)Nc1ccc3ccccc3c12", "note": "(configuration not stated)", "values": [
      {"measurement": "CC50", "setting": "[10]", "value": "> 40 µM (active)"},
      {"measurement": "IC50", "setting": "[11]", "value": "6.62 µM (active)"},
      {"measurement": "IC50", "setting": "Bcl-2-like protein 10", "value": "7.53 µM (active)"},
      {"measurement": "IC50", "setting": "Ephrin type-A receptor 4", "value": "11.8 µM (active)"},
      {"measurement": "IC50", "setting": "[12]", "value": "3.2 µM (active)"}
    ]},
    {"smiles": "O=C(O)/C=C/C(=O)Nc1ccc(-n2nccc2C(F)(F)F)cc1", "values": [
      {"measurement": "IC50", "setting": "[13]", "value": "> 100 µM (active)"}
    ]}
  ]
}
